According to ChEMBL document CHEMBL1133892 (Bioorg Med Chem Lett, 2001):

What was measured:
[1] = biological target: T1, Prostaglandin E2 receptor EP1 subtype (Mus musculus, UniProt P35375); assay: Binding affinity towards mouse Prostanoid EP1 receptor in CHO cells.; type: cell-based
T1 sequence (P35375 whole entry): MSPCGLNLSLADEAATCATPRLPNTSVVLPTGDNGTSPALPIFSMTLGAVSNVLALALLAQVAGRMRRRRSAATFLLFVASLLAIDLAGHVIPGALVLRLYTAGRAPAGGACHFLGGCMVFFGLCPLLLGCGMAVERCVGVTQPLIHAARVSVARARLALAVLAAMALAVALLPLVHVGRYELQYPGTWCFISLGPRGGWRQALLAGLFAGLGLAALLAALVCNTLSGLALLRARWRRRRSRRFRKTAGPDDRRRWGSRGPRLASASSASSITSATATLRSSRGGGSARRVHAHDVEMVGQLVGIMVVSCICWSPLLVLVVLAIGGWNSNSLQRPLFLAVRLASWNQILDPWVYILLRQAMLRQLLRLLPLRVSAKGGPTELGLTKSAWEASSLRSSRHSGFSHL

[2] = biological target: T2, Prostaglandin E2 receptor EP2 subtype (Mus musculus, UniProt Q62053); assay: Binding affinity towards mouse Prostanoid EP2 receptor expressed in CHO cells.; type: cell-based
T2 sequence (Q62053 whole entry): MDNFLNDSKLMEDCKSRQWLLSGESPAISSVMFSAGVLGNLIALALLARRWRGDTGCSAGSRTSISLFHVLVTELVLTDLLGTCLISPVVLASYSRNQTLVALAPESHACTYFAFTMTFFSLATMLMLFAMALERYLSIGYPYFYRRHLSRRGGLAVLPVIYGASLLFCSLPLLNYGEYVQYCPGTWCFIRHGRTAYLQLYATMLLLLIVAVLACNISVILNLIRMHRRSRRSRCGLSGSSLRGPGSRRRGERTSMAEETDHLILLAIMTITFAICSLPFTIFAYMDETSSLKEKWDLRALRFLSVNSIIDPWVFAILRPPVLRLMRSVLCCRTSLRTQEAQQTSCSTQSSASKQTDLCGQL

[3] = biological target: T2, Prostaglandin E2 receptor EP2 subtype; assay: Effective concentration which increases intracellular c-AMP production in mouse Prostanoid EP2 receptor; type: functional, cell-based
[4] = biological target: T3, Prostaglandin E2 receptor EP3 subtype (Mus musculus, UniProt P30557); assay: Binding affinity towards mouse Prostanoid EP3 receptor in CHO cells.; type: cell-based
T3 sequence (P30557 whole entry): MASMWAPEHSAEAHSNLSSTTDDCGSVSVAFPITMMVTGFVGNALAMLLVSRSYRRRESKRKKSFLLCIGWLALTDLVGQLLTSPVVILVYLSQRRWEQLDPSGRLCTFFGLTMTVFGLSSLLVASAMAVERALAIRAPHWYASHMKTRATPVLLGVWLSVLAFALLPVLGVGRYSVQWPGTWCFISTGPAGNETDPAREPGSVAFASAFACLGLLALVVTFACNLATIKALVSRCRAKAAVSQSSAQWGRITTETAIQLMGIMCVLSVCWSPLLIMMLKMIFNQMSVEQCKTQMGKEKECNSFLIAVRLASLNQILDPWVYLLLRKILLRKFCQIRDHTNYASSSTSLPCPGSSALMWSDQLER

Prostacyclin receptor [5] = biological target: T4, Prostacyclin receptor (Homo sapiens, UniProt P43119); assay: Binding affinity towards human Prostanoid IP receptor in CHO cells.; type: cell-based
T4 sequence (P43119 whole entry): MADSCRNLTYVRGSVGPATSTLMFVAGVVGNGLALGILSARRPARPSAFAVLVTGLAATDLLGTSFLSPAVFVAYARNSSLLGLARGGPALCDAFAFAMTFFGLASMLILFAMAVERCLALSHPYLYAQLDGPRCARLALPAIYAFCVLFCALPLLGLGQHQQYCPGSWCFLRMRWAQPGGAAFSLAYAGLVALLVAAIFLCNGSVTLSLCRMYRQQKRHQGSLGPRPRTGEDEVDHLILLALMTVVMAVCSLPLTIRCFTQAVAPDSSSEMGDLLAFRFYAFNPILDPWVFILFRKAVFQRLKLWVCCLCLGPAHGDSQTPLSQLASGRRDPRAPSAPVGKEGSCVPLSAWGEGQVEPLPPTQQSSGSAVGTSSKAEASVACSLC

Prostacyclin receptor [6] = biological target: T4, Prostacyclin receptor; assay: Effective concentration which increases intracellular c-AMP production in human Prostanoid IP receptor; type: functional, cell-based
Rattus norvegicus [7] = assay: Suppression of uterine motility for the 5-min period before and after the commencenment of intravenous administration to anesthetized pregnant rats; type: functional
[8] = biological target: Prostaglandin E2 receptor EP4 subtype (Mus musculus, UniProt P32240); assay: Binding affinity towards mouse Prostanoid EP4 receptor in CHO cells.; type: cell-based
Sequence of Prostaglandin E2 receptor EP4 subtype (P32240 whole entry): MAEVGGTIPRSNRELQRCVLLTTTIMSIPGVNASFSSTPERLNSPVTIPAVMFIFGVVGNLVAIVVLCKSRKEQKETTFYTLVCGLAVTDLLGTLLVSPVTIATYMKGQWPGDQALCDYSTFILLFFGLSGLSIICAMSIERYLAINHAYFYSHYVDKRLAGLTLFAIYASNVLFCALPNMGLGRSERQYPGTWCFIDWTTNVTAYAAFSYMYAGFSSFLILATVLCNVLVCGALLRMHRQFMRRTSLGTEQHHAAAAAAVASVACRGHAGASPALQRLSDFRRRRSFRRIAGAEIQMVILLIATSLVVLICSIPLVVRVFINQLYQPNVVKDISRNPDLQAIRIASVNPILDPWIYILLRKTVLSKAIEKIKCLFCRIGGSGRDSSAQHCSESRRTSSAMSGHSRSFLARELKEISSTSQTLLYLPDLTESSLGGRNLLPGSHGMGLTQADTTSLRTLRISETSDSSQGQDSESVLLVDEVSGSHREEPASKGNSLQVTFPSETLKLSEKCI

Rattus norvegicus [9] = assay: Evaluated for its maximal response of hypotensive effect at 1000 ug/kg, iv; type: functional
[10] = biological target: T2, Prostaglandin E2 receptor EP2 subtype; assay: Effective concentration which increases intracellular c-AMP production in mouse EP2- receptor; type: functional, cell-based
Rattus norvegicus [11] = assay: Evaluated for its maximal response of hypotensive effect at 300 ug/kg, iv; type: functional
[12] = biological target: Prostaglandin E2 receptor EP2 subtype (Homo sapiens, UniProt P43116); assay: Compound was evaluated for its competitive binding affinity towards human Prostanoid EP2 receptor in CHO cells expressing prostanoid receptor; type: cell-based
Sequence of Prostaglandin E2 receptor EP2 subtype (Homo sapiens, UniProt P43116) (P43116 whole entry): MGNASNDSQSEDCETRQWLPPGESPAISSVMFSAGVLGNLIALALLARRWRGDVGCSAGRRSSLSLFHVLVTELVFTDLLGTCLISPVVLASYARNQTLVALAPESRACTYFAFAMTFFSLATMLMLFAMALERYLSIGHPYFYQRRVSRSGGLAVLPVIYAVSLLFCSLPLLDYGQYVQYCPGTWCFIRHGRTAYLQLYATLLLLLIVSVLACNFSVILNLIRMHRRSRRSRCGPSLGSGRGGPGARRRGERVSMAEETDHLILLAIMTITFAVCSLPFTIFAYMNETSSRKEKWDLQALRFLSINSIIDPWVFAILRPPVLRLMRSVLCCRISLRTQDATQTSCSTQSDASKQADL

Row | SMILES | Ki [1] | Ki [2] | EC50 [3] | Ki [4] | Ki (Prostacyclin receptor [5]) | EC50 (Prostacyclin receptor [6]) | Ki [8] | EC50 [10] | Ki [12] | ED50 (Rattus norvegicus [7]) | Max response (Rattus norvegicus [9]) | Max response (Rattus norvegicus [11])
1 | CCCC1([C@@H](O)C/C=C/C2[C@H](O)CC(=O)[C@@H]2CC#CCCCC(=O)O)CCC1 (some centres undefined) | > 10000 nM | 1100 nM |  | > 10000 nM |  |  | > 10000 nM |  |  |  |  | 
2 | CCCC1([C@@H](O)C/C=C/C2[C@H](O)CC(=O)[C@@H]2CCc2ccc(C(=O)O)cc2)CCC1 (some centres undefined) | > 10000 nM | 25 nM | 54 nM |  |  | > 10000 nM | > 10000 nM |  |  |  |  | 
3 | CCC1([C@@H](O)C/C=C/[C@@H]2[C@@H](C/C=C\CCCC(=O)O)CC[C@H]2O)CCC1 | 5100 nM | 11 nM | 1400 nM | > 10000 nM | > 10000 nM |  | > 10000 nM |  |  |  |  | 
4 | CCCC1([C@@H](O)C/C=C/C2[C@H](O)CC(=O)[C@@H]2C/C=C/CCCC(=O)O)CCC1 (some centres undefined) | > 10000 nM | 92 nM | 43 nM |  |  | > 10000 nM | > 10000 nM |  |  | 0.275 mg/kg | 22.8 delta mmHg | 
5 | CCCC1([C@@H](O)C/C=C/C2[C@H](O)CC(=O)[C@@H]2CCCCCCC(=O)OC)CCC1 (some centres undefined) | > 10000 nM | 2400 nM |  | > 10000 nM | > 10000 nM | 37 nM | > 10000 nM | 33 nM |  |  |  | 
6 | CCC1([C@@H](O)C/C=C/[C@H]2[C@H](O)CC(=O)[C@@H]2C/C=C\CCCC(=O)O)CCC1 | > 10000 nM | 30 nM | 11 nM |  | > 10000 nM |  | > 10000 nM |  |  |  |  | 
7 | CCCC1([C@@H](O)C/C=C/[C@H]2[C@H](O)CC(=O)[C@@H]2C/C=C\CCCC(=O)O)CCC1 | > 10000 nM | 330 nM | 220 nM | 1200 nM | > 10000 nM |  | > 10000 nM |  |  |  |  | 
8 | CCCC1([C@@H](O)C/C=C/C2[C@H](O)CC(=O)[C@@H]2CCCCCCC(=O)O)CCC1 (some centres undefined) | > 10000 nM | 73 nM | 32 nM | > 10000 nM | 870 nM | 25 nM | > 10000 nM |  |  | 0.455 mg/kg | 39.8 delta mmHg | 
9 | CC(C)CC1([C@@H](O)C/C=C/[C@H]2[C@H](O)CC(=O)[C@@H]2C/C=C\CCCC(=O)O)CCC1 | > 10000 nM | 40 nM | 45 nM |  | > 10000 nM |  | > 10000 nM |  |  |  |  | 
10 | CCCC1([C@@H](O)C/C=C/[C@H]2[C@H](O)CC(=O)[C@@H]2C/C=C\CCCC(=O)O)CCCCC1 | > 10000 nM | 3300 nM | > 10000 nM |  |  |  | > 10000 nM |  |  |  |  | 
11 | CCCC1([C@@H](O)C/C=C/[C@H]2[C@H](O)CC(=O)[C@@H]2C/C=C\CCCC(=O)O)CCCC1 | > 10000 nM | 370 nM | 580 nM |  | > 10000 nM |  | > 10000 nM |  |  |  |  | 
12 | CCC1([C@@H](O)C/C=C/[C@@H]2[C@@H](C/C=C\CCCC(=O)O)[C@@H](Cl)C[C@H]2O)CCC1 | > 10000 nM | 13 nM | 39 nM | > 10000 nM | > 10000 nM |  | > 10000 nM |  |  |  |  | 

The next compounds have a lower Ki [1] than those just listed; values first:

Row | Ki [1] | Ki [2] | EC50 [3] | Ki [4] | Ki (Prostacyclin receptor [5]) | EC50 (Prostacyclin receptor [6]) | Ki [8] | EC50 [10] | Ki [12] | SMILES | ED50 (Rattus norvegicus [7]) | Max response (Rattus norvegicus [9]) | Max response (Rattus norvegicus [11])
13 | 18 nM | 38 nM | 2.1 nM | 5 nM | > 10000 nM | 260 nM |  |  |  | CCCCC[C@@H](O)/C=C/[C@H]1[C@H](O)CC(=O)[C@@H]1C/C=C\CCCC(=O)O | > 1.8 mg/kg |  | 
14 | 1600 nM | 20 nM | 130 nM | 830 nM | > 10000 nM |  | 2100 nM |  |  | CCCCCC1([C@@H](O)C/C=C/[C@H]2[C@H](O)CC(=O)[C@@H]2C/C=C\CCCC(=O)O)CCC1 |  |  | 
15 | 780 nM | 43 nM | 71 nM | 2000 nM | > 10000 nM |  | > 10000 nM |  |  | CCCCC1([C@@H](O)C/C=C/[C@H]2[C@H](O)CC(=O)[C@@H]2C/C=C\CCCC(=O)O)CCC1 |  |  | 
16 | 100 nM | 87 nM | 2.6 nM | 5 nM | 150 nM | 1.8 nM | 3.3 nM |  |  | CCCCCC(O)/C=C/[C@H]1[C@H](O)CC(=O)[C@@H]1CCCCCCC(=O)O (single isomer, unassigned) [ALPROSTADIL] |  |  | 
17 | 3400 nM | 2.2 nM | 2.8 nM | > 10000 nM | > 10000 nM |  | > 10000 nM |  | 0.74 nM | CCC1([C@@H](O)C/C=C/[C@@H]2[C@@H](C/C=C\CCCC(=O)O)[C@H](Cl)C[C@H]2O)CCC1 | 0.0329 mg/kg |  | 24.4 delta mmHg
